Assay results published in ChEMBL document CHEMBL5335843, “Application of tobramycin benzyl ether as an antibiotic adjuvant capable of sensitizing multidrug-resistant Gram-negative bacteria to rifampicin” (2024).

Columns and labels:
Assay type in all cases: functional
Escherichia coli [1] = assay: Antibacterial activity against multi-drug resistant Escherichia coli clinical isolate 94393 assessed as inhibition of bacterial growth incubated for 18 hrs by two fold broth microdilution assay
Escherichia coli [2] = assay: Antibiotic adjuvant activity against multi-drug resistant Escherichia coli clinical isolate 94393 assessed as rifampicin MIC incubated for 18 hrs in presence of Rifampicin by two fold broth microdilution checkerboard assay
Acinetobacter baumannii [3] = assay: Antibiotic adjuvant activity against multi-drug resistant Acinetobacter baumannii clinical isolate AB027 assessed as rifampicin MIC incubated for 18 hrs in presence of Rifampicin by two fold broth microdilution checkerboard assay
Acinetobacter baumannii [4] = assay: Antibiotic adjuvant activity against multi-drug resistant Acinetobacter baumannii clinical isolate AB031 assessed as rifampicin MIC incubated for 18 hrs in presence of Rifampicin by two fold broth microdilution checkerboard assay
Escherichia coli [5] = assay: Antibiotic adjuvant activity against multi-drug resistant Escherichia coli clinical isolate 107115 assessed as inhibition of bacterial growth incubated for 18 hrs in presence of Rifampicin by two fold broth microdilution checkerboard assay
Acinetobacter baumannii [6] = assay: Antibiotic adjuvant activity against multi-drug resistant Acinetobacter baumannii clinical isolate LAC-4 assessed as inhibition of bacterial growth incubated for 18 hrs in presence of Rifampicin by two fold broth microdilution checkerboard assay
Escherichia coli [7] = assay: Antibiotic adjuvant activity against multi-drug resistant Escherichia coli clinical isolate 94474 assessed as fold potentiation incubated for 18 hrs in presence of Rifampicin by two fold broth microdilution checkerboard assay
Acinetobacter baumannii [8] = assay: Antibiotic adjuvant activity against multi-drug resistant Acinetobacter baumannii clinical isolate 110193 assessed as fractional inhibitory concentration index incubated for 18 hrs in presence of Rifampicin by two fold broth microdilution checkerboard assay
Escherichia coli [9] = assay: Antibacterial activity against multi-drug resistant Escherichia coli clinical isolate EC107115 assessed as inhibition of bacterial growth incubated for 18 hrs by two fold broth microdilution assay
Escherichia coli [10] = assay: Antibacterial activity against multi-drug resistant Escherichia coli clinical isolate EC94474 assessed as inhibition of bacterial growth incubated for 18 hrs by two fold broth microdilution assay
Pseudomonas aeruginosa [11] = assay: Antibiotic adjuvant activity against multi-drug resistant Pseudomonas aeruginosa clinical isolate PA264 assessed as minocycline MIC incubated for 18 hrs in presence of minocycline by two fold broth microdilution checkerboard assay
Escherichia coli [12] = assay: Antibiotic adjuvant activity against multi-drug resistant Escherichia coli clinical isolate EC107115 assessed as minocycline MIC incubated for 18 hrs in presence of minocycline by two fold broth microdilution checkerboard assay
Pseudomonas aeruginosa [13] = assay: Antibiotic adjuvant activity against multi-drug resistant Pseudomonas aeruginosa clinical isolate PA101243 assessed as fold potentiation incubated for 18 hrs in presence of minocycline by two fold broth microdilution checkerboard assay
Pseudomonas aeruginosa [14] = assay: Antibiotic adjuvant activity against multi-drug resistant Pseudomonas aeruginosa clinical isolate PA264 assessed as fold potentiation incubated for 18 hrs in presence of minocycline by two fold broth microdilution checkerboard assay
Escherichia coli [15] = assay: Antibiotic adjuvant activity against multi-drug resistant Escherichia coli clinical isolate EC94474 assessed as fold potentiation incubated for 18 hrs in presence of minocycline by two fold broth microdilution checkerboard assay
Pseudomonas aeruginosa [16] = assay: Antibiotic adjuvant activity against multi-drug resistant Pseudomonas aeruginosa clinical isolate PA259 assessed as fractional inhibitory concentration index incubated for 18 hrs in presence of minocycline by two fold broth microdilution checkerboard assay
Pseudomonas aeruginosa [17] = assay: Antibiotic adjuvant activity against multi-drug resistant Pseudomonas aeruginosa clinical isolate PA262 assessed as fractional inhibitory concentration index incubated for 18 hrs in presence of minocycline by two fold broth microdilution checkerboard assay
Escherichia coli [18] = assay: Antibiotic adjuvant activity against multi-drug resistant Escherichia coli clinical isolate EC107115 assessed as fractional inhibitory concentration index incubated for 18 hrs in presence of minocycline by two fold broth microdilution checkerboard assay
Pseudomonas aeruginosa [19] = assay: Antibiotic adjuvant activity against multi-drug resistant Pseudomonas aeruginosa clinical isolate PA114228 assessed as doxycycline MIC incubated for 18 hrs in presence of doxycycline by two fold broth microdilution checkerboard assay
Pseudomonas aeruginosa [20] = assay: Antibiotic adjuvant activity against multi-drug resistant Pseudomonas aeruginosa clinical isolate PA259 assessed as inhibition of bacterial growth incubated for 18 hrs in presence of doxycycline by two fold broth microdilution checkerboard assay
Escherichia coli [21] = assay: Antibiotic adjuvant activity against multi-drug resistant Escherichia coli clinical isolate EC94474 assessed as inhibition of bacterial growth incubated for 18 hrs in presence of doxycycline by two fold broth microdilution checkerboard assay
Pseudomonas aeruginosa [22] = assay: Antibiotic adjuvant activity against multi-drug resistant Pseudomonas aeruginosa clinical isolate PA114228 assessed as fold potentiation incubated for 18 hrs in presence of doxycycline by two fold broth microdilution checkerboard assay
Pseudomonas aeruginosa [23] = assay: Antibiotic adjuvant activity against multi-drug resistant Pseudomonas aeruginosa clinical isolate PA264 assessed as fold potentiation incubated for 18 hrs in presence of doxycycline by two fold broth microdilution checkerboard assay
Escherichia coli [24] = assay: Antibiotic adjuvant activity against multi-drug resistant Escherichia coli clinical isolate EC107115 assessed as fractional inhibitory concentration index incubated for 18 hrs in presence of doxycycline by two fold broth microdilution checkerboard assay
Escherichia coli [25] = assay: Antibiotic adjuvant activity against multi-drug resistant Escherichia coli clinical isolate EC94474 assessed as fractional inhibitory concentration index incubated for 18 hrs in presence of doxycycline by two fold broth microdilution checkerboard assay
Enterococcus faecium [26] = assay: Antibacterial activity against Enterococcus faecium 114278 assessed as inhibition of bacterial growth incubated for 18 hrs by two fold broth microdilution assay
Staphylococcus aureus = assay: Antibacterial activity against methicilin-resistant Staphylococcus aureus assessed as inhibition of bacterial growth incubated for 18 hrs by two fold broth microdilution assay
Enterococcus faecium [27] = assay: Antibiotic adjuvant activity against Enterococcus faecium 128149 assessed as rifampicin MIC incubated for 18 hrs in presence of rifampicin by two fold broth microdilution checkerboard assay
Enterococcus faecium [28] = assay: Antibiotic adjuvant activity against Enterococcus faecium 114278 assessed as inhibition of bacterial growth incubated for 18 hrs in presence of rifampicin by two fold broth microdilution checkerboard assay
Escherichia coli [29] = assay: Antibiotic adjuvant activity against Escherichia coli ATCC 25922 assessed as fold potentiation incubated for 18 hrs in presence of Rifampicin by two fold broth microdilution checkerboard assay
Acinetobacter baumannii [30] = assay: Antibiotic adjuvant activity against Acinetobacter baumannii ATCC 17978 assessed as fold potentiation incubated for 18 hrs in presence of Rifampicin by two fold broth microdilution checkerboard assay
Escherichia coli [31] = assay: Antibiotic adjuvant activity against Escherichia coli ATCC 25922 assessed as fold potentiation incubated for 18 hrs in presence of rifampicin and CAMHB Mg2+ media by two fold broth microdilution checkerboard assay
Escherichia coli [32] = assay: Antibiotic adjuvant activity against Escherichia coli ATCC 25922 assessed as fold increase in MIC incubated for 18 hrs in presence of rifampicin and CAMHB Mg2+ media by two fold broth microdilution checkerboard assay
Acinetobacter baumannii [33] = assay: Antibiotic adjuvant activity against Acinetobacter baumannii ATCC 17978 assessed as fold potentiation incubated for 18 hrs in presence of rifampicin by two fold broth microdilution checkerboard assay relative to FBS
Escherichia coli [34] = assay: Antibiotic adjuvant activity against Escherichia coli ATCC 25922 assessed as minocycline MIC incubated for 18 hrs in presence of minocycline by two fold broth microdilution checkerboard assay
Escherichia coli [35] = assay: Antibiotic adjuvant activity against Escherichia coli ATCC 25922 assessed as doxycycline MIC incubated for 18 hrs in presence of doxycycline by two fold broth microdilution checkerboard assay

Molecule `Cl.NC[C@H]1O[C@H](O[C@H]2[C@H](OCc3ccccc3)[C@@H](O[C@H]3O[C@H](COCc4ccccc4)[C@@H](OCc4ccccc4)[C@H](N)[C@H]3OCc3ccccc3)[C@H](N)C[C@@H]2N)[C@H](N)C[C@@H]1OCc1ccccc1` has an MIC (Escherichia coli [1]) of 32 µg/mL, an MIC (Escherichia coli [2]) of 32 µg/mL and an MIC (Acinetobacter baumannii [3]) of 0.004 µg/mL. The MIC (Acinetobacter baumannii [4]) was 0.002 µg/mL, the MIC (Escherichia coli [5]) was 2 µg/mL and the MIC (Acinetobacter baumannii [6]) was 4 µg/mL. The “fold change (FC)” value (Escherichia coli [7]) was 256, the “fractional inhibitory concentration index (FICI)” value (Acinetobacter baumannii [8]) was 0.126 and the MIC (Escherichia coli [9]) was 32 µg/mL. The MIC (Escherichia coli [10]) was 32 µg/mL, the MIC (Pseudomonas aeruginosa [11]) was 16 µg/mL and the MIC (Escherichia coli [12]) was 1 µg/mL. The “fold change (FC)” value (Pseudomonas aeruginosa [13]) was 1, the “fold change (FC)” value (Pseudomonas aeruginosa [14]) was 2 and the “fold change (FC)” value (Escherichia coli [15]) was 64. For the same molecule, the “fractional inhibitory concentration index (FICI)” value (Pseudomonas aeruginosa [16]) was 1.063, the “fractional inhibitory concentration index (FICI)” value (Pseudomonas aeruginosa [17]) was 1.063 and the “fractional inhibitory concentration index (FICI)” value (Escherichia coli [18]) was 0.078. For the same molecule, the MIC (Pseudomonas aeruginosa [19]) was > 128 µg/mL, the MIC (Pseudomonas aeruginosa [20]) was 8 µg/mL and the MIC (Escherichia coli [21]) was 8 µg/mL. For the same molecule, the “fold change (FC)” value (Pseudomonas aeruginosa [22]) was 1, the “fold change (FC)” value (Pseudomonas aeruginosa [23]) was 1 and the “fractional inhibitory concentration index (FICI)” value (Escherichia coli [24]) was 0.313. For the same molecule, the “fractional inhibitory concentration index (FICI)” value (Escherichia coli [25]) was 0.188, the MIC (Enterococcus faecium [26]) was 8 µg/mL and the MIC (Staphylococcus aureus) was 16 µg/mL. The MIC (Enterococcus faecium [27]) was 8 µg/mL, the MIC (Enterococcus faecium [28]) was 4 µg/mL and the “fold change (FC)” value (Escherichia coli [29]) was 8. For the same molecule, the “fold change (FC)” value (Acinetobacter baumannii [30]) was 8, the fold change (FC) (Escherichia coli [31]) was 2 and the “fold change (FC)” value (Escherichia coli [32]) was “>=2”. For the same molecule, the “fold change (FC)” value (Acinetobacter baumannii [33]) was 64, the MIC (Escherichia coli [34]) was 8 µg/mL and the MIC (Escherichia coli [35]) was 0.125 µg/mL.
